We go through 25 molecules from patent US20230382889A1 (Volastra Therapeutics, Inc., priority 2022, published 2023).

hKIF18A (1-374), sequence (Q8NI77 1-374): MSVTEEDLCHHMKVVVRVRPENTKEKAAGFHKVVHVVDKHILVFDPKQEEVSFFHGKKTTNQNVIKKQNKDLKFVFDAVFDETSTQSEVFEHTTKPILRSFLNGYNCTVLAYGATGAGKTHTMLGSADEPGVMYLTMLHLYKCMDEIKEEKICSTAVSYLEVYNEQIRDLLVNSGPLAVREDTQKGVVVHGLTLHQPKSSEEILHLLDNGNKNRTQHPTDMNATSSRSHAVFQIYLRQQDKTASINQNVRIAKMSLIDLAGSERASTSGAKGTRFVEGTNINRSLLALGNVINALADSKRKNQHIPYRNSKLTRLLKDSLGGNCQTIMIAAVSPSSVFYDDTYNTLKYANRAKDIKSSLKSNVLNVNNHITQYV

For this assay, the target named is hKIF18A (1-374) (Homo sapiens (Human), UniProt Q8NI77). The experiment in a line: Inhibition of KIF18A microtubule-dependent ATPase activity (ADP-Glo). In kind it is biochemical. Particulars: 4 nM hKIF18A (1-374). As to the method:
Test compounds were plated in a 3× dilution scheme in a 384-well plate. Assay buffer: 80 mM PIPES (pH 6.9), 1 mM MgCl2, 75 mM KCl, 1 mM EGTA, 1 mM DTT, 0.01% BSA, 0.005% Tween-20, 1 μM Taxol in H2O. […] After incubation at room temperature for 30 min, 2.5 μL of microtubule mix was added [0.2 mg/mL pre-formed microtubules, 2.0 mM ATP in assay buffer], the plate was centrifuged for 30 s and then incubated at 28° C. for 60 min. 5 μL of Promega® ADP-Glo Max R1 was added, the plate was centrifuged for 30 s, and the mixture incubated for 4 h at room temperature. 10 μL of Promega® ADP-Glo Max R2 was added, the plate centrifuged for 30 s, and incubated for 60 min at room temperature. Luminescence was measured with an Envision plate reader, and % Inhibition was calculated for each well as: ([max−min]−[test−min])/[max−min]. IC50 values were calculated from concentration vs. % Inhibition data via a four-parameter variable slope model.
In general terms: In ADP-Glo the light output rises with the ADP produced.
For orientation: IC50 means the concentration at which inhibition is half-maximal. Read a high IC50 as lower potency. Consider `CS(=O)(=O)Nc1ccc(-n2cc(-c3cccc(N4CCC(F)(F)CC4)n3)nn2)c(N2CCC3(CC2)CC3)n1` [Compound 46, N-(5-(4-(6-(4,4-difluoropiperidin-1-yl)pyridin-2-yl)-1H-1,2,3-triazol-1-yl)-6-(6-azaspiro[2.5]octan-6-yl)pyridin-2-yl)methanesulfonamide], for which the concentration for half-maximal inhibition (IC50) amounted to 0.0091 µM. That is a single-digit nanomolar value.

For `Cc1cc(-c2cn(-c3ccc(NS(=O)(=O)CCO)cc3N3CCC4(CC3)CC4)nn2)nc(N2CCC(F)(F)CC2)c1` [Compound 48, N-(4-(4-(6-(4,4-difluoropiperidin-1-yl)-4-methylpyridin-2-yl)-1H-1,2,3-triazol-1-yl)-3-(6-azaspiro[2.5]octan-6-yl)phenyl)-2-hydroxyethane-1-sulfonamide], the half-inhibitory concentration (IC50) came out at 0.017 µM.

Turning to `CS(=O)(=O)Nc1ccc(-n2cc(-c3csc(N4CCC(F)(F)CC4)n3)nn2)c(N2CCC3(CC2)CC3)c1` [Compound 50, N-(4-(4-(2-(4,4-difluoropiperidin-1-yl)thiazol-4-yl)-1H-1,2,3-triazol-1-yl)-3-(6-azaspiro[2.5]octan-6-yl)phenyl)methanesulfonamide], the IC50 was determined as 0.0072 µM.

`O=S(=O)(CCO)Nc1ccc(-n2cc(-c3ccc(C(O)C4CCCC4)o3)nn2)c(N2CCC3(CC2)CC3)c1` (stereo not shown) [Compound 51, N-(4-(4-(5-(cyclopentyl(hydroxy)methyl)furan-2-yl)-1H-1,2,3-triazol-1-yl)-3-(6-azaspiro[2.5]octan-6-yl)phenyl)-2-hydroxyethane-1-sulfonamide] had an IC50 of 0.0028 µM.

The molecule `CS(=O)(=O)Nc1ccc(-n2cc(-c3cccc(N4CCC(F)(F)CC4)n3)nn2)c(N2CCCCCC2)c1` [Compound 52, N-(3-(azepan-1-yl)-4-(4-(6-(4,4-difluoropiperidin-1-yl)pyridin-2-yl)-1H-1,2,3-triazol-1-yl)phenyl)methanesulfonamide] displayed an IC50 of 0.018 µM.

For the molecule `CS(=O)(=O)Nc1ccc(-n2cc(-c3cccc(N4CCC(F)(F)CC4)n3)nn2)c(N2CC3CC(C3)C2)c1` [Compound 53, N-(3-(3-azabicyclo[3.1.1]heptan-3-yl)-4-(4-(6-(4,4-difluoropiperidin-1-yl)pyridin-2-yl)-1H-1,2,3-triazol-1-yl)phenyl)methanesulfonamide], the IC50 stood at 0.043 µM.

For `CS(=O)(=O)Nc1ccc(-n2cc(-c3cccc(N4CCOCC4)n3)nn2)c(N2CCC3(CC2)CC3)c1` [Compound 54, N-(4-(4-(6-morpholinopyridin-2-yl)-1H-1,2,3-triazol-1-yl)-3-(6-azaspiro[2.5]octan-6-yl)phenyl)methanesulfonamide], 0.0083 µM corresponded to half-maximal inhibition (IC50).

`CS(=O)(=O)Nc1ccc(-n2cc(-c3cccc(N4CC5CC(C4)O5)n3)nn2)c(N2CCC3(CC2)CC3)c1` [Compound 55, N-(4-(4-(6-(6-oxa-3-azabicyclo[3.1.1]heptan-3-yl)pyridin-2-yl)-1H-1,2,3-triazol-1-yl)-3-(6-azaspiro[2.5]octan-6-yl)phenyl)methanesulfonamide] showed a half-inhibitory concentration (IC50) of 0.029 µM.

`CC1CN(c2cccc(-c3cn(-c4ccc(NS(C)(=O)=O)cc4N4CCC5(CC4)CC5)nn3)n2)CCO1` (stereo not shown) [Compound 56, N-(4-(4-(6-(2-methylmorpholino)pyridin-2-yl)-1H-1,2,3-triazol-1-yl)-3-(6-azaspiro[2.5]octan-6-yl)phenyl)methanesulfonamide]: 0.013 µM corresponded to half-maximal inhibition (IC50).

`CS(=O)(=O)Nc1ccc(-n2cc(-c3cccc(N4CC5(CCC5)C4)n3)nn2)c(N2CCC3(CC2)CC3)c1` [Compound 57, N-(4-(4-(6-(2-azaspiro[3.3]heptan-2-yl)pyridin-2-yl)-1H-1,2,3-triazol-1-yl)-3-(6-azaspiro[2.5]octan-6-yl)phenyl)methanesulfonamide] returned an IC50 of 0.037 µM.

Consider `CS(=O)(=O)Nc1ccc(-n2cc(-c3cccc(N4CC5(CCO5)C4)n3)nn2)c(N2CCC3(CC2)CC3)c1` [Compound 58, N-(4-(4-(6-(1-oxa-6-azaspiro[3.3]heptan-6-yl)pyridin-2-yl)-1H-1,2,3-triazol-1-yl)-3-(6-azaspiro[2.5]octan-6-yl)phenyl)methanesulfonamide], for which inhibition was half-maximal at 0.041 µM (IC50).

Regarding `CS(=O)(=O)Nc1cc(N2CCC3(CC2)CC3)c(-n2cc(-c3cccc(N4CCC(F)(F)CC4)n3)nn2)cn1` [Compound 59, N-(5-(4-(6-(4,4-difluoropiperidin-1-yl)pyridin-2-yl)-1H-1,2,3-triazol-1-yl)-4-(6-azaspiro[2.5]octan-6-yl)pyridin-2-yl)methanesulfonamide], it took 0.0016 µM to reach half-maximal inhibition (IC50).

The molecule `CS(=O)(=O)Nc1ccc(-n2cc(-c3cccc(N4CC(F)(F)C4)n3)nn2)c(N2CCC3(CC2)CC3)c1` [Compound 60, N-(4-(4-(6-(3,3-difluoroazetidin-1-yl)pyridin-2-yl)-1H-1,2,3-triazol-1-yl)-3-(6-azaspiro[2.5]octan-6-yl)phenyl)methanesulfonamide] showed a half-maximal inhibitory concentration (IC50) of 0.0065 µM.

`CS(=O)(=O)Nc1ccc(-n2cc(-c3cncc(N4CCC(F)(F)CC4)n3)nn2)c(N2CCC3(CC2)CC3)c1` [Compound 63, N-(4-(4-(6-(4,4-difluoropiperidin-1-yl)pyrazin-2-yl)-1H-1,2,3-triazol-1-yl)-3-(6-azaspiro[2.5]octan-6-yl)phenyl)methanesulfonamide] showed a half-inhibitory concentration (IC50) of 0.0034 µM.

For `O=S(=O)(CCO)Nc1ccc(-c2cn(-c3cccc(N4CCC(F)(F)CC4)c3)nn2)c(N2CCC3(CC2)CC3)c1` [Compound 65, N-(4-(1-(3-(4,4-difluoropiperidin-1-yl)phenyl)-1H-1,2,3-triazol-4-yl)-3-(6-azaspiro[2.5]octan-6-yl)phenyl)-2-hydroxyethane-1-sulfonamide], the midpoint of inhibition, the IC50, lay at 0.0086 µM.

`CS(=O)(=O)Nc1ccc(-n2cc(-c3nccc(N4CCC(F)(F)CC4)n3)cn2)c(N2CCC3(CC2)CC3)c1` [Compound 66, N-(4-(4-(4-(4,4-difluoropiperidin-1-yl)pyrimidin-2-yl)-1H-pyrazol-1-yl)-3-(6-azaspiro[2.5]octan-6-yl)phenyl)methanesulfonamide] returned an IC50 of 0.014 µM.

`Cc1cc(-c2cn(-c3ccc(NS(=O)(=O)CCO)cc3N3CCCCC3)nn2)nc(N2CC3C(C2)C3(F)F)n1` (stereo not shown) [Compound 74, N-(4-(4-(2-(6,6-difluoro-3-azabicyclo[3.1.0]hexan-3-yl)-6-methylpyrimidin-4-yl)-1H-1,2,3-triazol-1-yl)-3-(piperidin-1-yl)phenyl)-2-hydroxyethane-1-sulfonamide] showed an IC50 of 0.018 µM.

In the case of `Cc1cc(-c2cn(-c3ccc(NS(=O)(=O)CCO)cc3N3CCCCCC3)nn2)nc(N2CCC(F)(F)CC2)n1` [Compound 75, N-(3-(azepan-1-yl)-4-(4-(2-(4,4-difluoropiperidin-1-yl)-6-methylpyrimidin-4-yl)-1H-1,2,3-triazol-1-yl)phenyl)-2-hydroxyethane-1-sulfonamide], the IC50 was found to be 0.0071 µM.

As to `O=S(=O)(CCO)Nc1ccc(-n2cc(-c3ccn(C4CCC(F)(F)CC4)n3)nn2)c(N2CCCCC2)c1` [Compound 76, N-(4-(4-(1-(4,4-difluorocyclohexyl)-1H-pyrazol-3-yl)-1H-1,2,3-triazol-1-yl)-3-(piperidin-1-yl)phenyl)-2-hydroxyethane-1-sulfonamide], the half-inhibitory concentration (IC50) came out at 0.029 µM. This IC50 is about 4.1-fold higher than that of the molecule before.

Turning to `O=S(=O)(CCO)Nc1ccc(-n2cc(-c3ccn(CC4CCC4)n3)nn2)c(N2CCC3(CC2)CC3)c1` [Compound 77, N-(4-(4-(1-(cyclobutylmethyl)-1H-pyrazol-3-yl)-1H-1,2,3-triazol-1-yl)-3-(6-azaspiro[2.5]octan-6-yl)phenyl)-2-hydroxyethane-1-sulfonamide], the IC50 worked out at 0.012 µM.

Molecule `O=S(=O)(CCO)Nc1ccc(-n2cc(-c3cc(F)cc(N4CCC(F)(F)CC4)n3)nn2)c(N2CCC3(CC2)CC3)c1` [Compound 78, N-(4-(4-(6-(4,4-difluoropiperidin-1-yl)-4-fluoropyridin-2-yl)-1H-1,2,3-triazol-1-yl)-3-(6-azaspiro[2.5]octan-6-yl)phenyl)-2-hydroxyethane-1-sulfonamide] showed an IC50 of 0.017 µM. The IC50 values of the last two molecules are within 1.5-fold of each other.

`Cc1cc(-c2cn(-c3ccc(NS(=O)(=O)CCO)cc3N3CCC(F)(F)CC3)nn2)nc(N2CCC(F)(F)CC2)c1` [Compound 80, N-(3-(4,4-difluoropiperidin-1-yl)-4-(4-(6-(4,4-difluoropiperidin-1-yl)-4-methylpyridin-2-yl)-1H-1,2,3-triazol-1-yl)phenyl)-2-hydroxyethane-1-sulfonamide]: inhibition was half-maximal at 0.013 µM (IC50).

For `O=S(=O)(CCO)Nc1ccc(-n2cc(-c3csc(N4CCCC4)n3)nn2)c(N2CCC3(CC2)CC3)c1` [Compound 81, 2-hydroxy-N-(4-(4-(2-(pyrrolidin-1-yl)thiazol-4-yl)-1H-1,2,3-triazol-1-yl)-3-(6-azaspiro[2.5]octan-6-yl)phenyl)ethane-1-sulfonamide], half-maximal inhibition (IC50) required 0.14 µM. Compared with the last molecule, the IC50 is about 11-fold higher.

Regarding `O=S(=O)(CCO)Nc1ccc(-n2cc(-c3ccn(C4CCC4)n3)nn2)c(N2CCC3(CC2)CC3)c1` [Compound 82, N-(4-(4-(1-cyclobutyl-1H-pyrazol-3-yl)-1H-1,2,3-triazol-1-yl)-3-(6-azaspiro[2.5]octan-6-yl)phenyl)-2-hydroxyethane-1-sulfonamide], the half-inhibitory concentration (IC50) turned out to be 0.06 µM.

With `O=S(=O)(CCO)Nc1ccc(-n2cc(-c3ccn(C4CCCC4)n3)nn2)c(N2CCC3(CC2)CC3)c1` [Compound 83, N-(4-(4-(1-cyclopentyl-1H-pyrazol-3-yl)-1H-1,2,3-triazol-1-yl)-3-(6-azaspiro[2.5]octan-6-yl)phenyl)-2-hydroxyethane-1-sulfonamide], the midpoint of inhibition, the IC50, lay at 0.01 µM.
